One block for each molecule: values may come before it. Activity calls are given as the source filed them. No cut-off for these calls is given here.
Legend:
[1] = target: T1, Macrophage colony-stimulating factor 1 receptor (Homo sapiens, UniProt P07333); assay: Inhibition of human cytoplasmic macrophage colony-stimulating factor 1 receptor by fluorescence polarization
[2] = system: Mus musculus; assay: Inhibition of FMS in B6C3F1 mouse assessed as reduction in CSF1-induced C-fos levels at 5 mg/kg, po; type: functional, organism-based; parameters: dose 5 mg/kg
[3] = system: Mus musculus; assay: Inhibition of FMS in B6C3F1 mouse assessed as reduction in CSF1-induced C-fos levels at 20 mg/kg, po; type: functional, organism-based; parameters: dose 20 mg/kg
[4] = system: Mus musculus; assay: Inhibition of FMS in B6C3F1 mouse assessed as reduction in CSF1-induced C-fos levels at 50 mg/kg, po; type: functional, organism-based; parameters: dose 50 mg/kg
[5] = Inhibition of CSF1-induced human BMDM cell proliferation; type: functional, cell-based
[6] = target: T1, Macrophage colony-stimulating factor 1 receptor; assay: Inhibition of human cytoplasmic macrophage colony-stimulating factor 1 receptor at 5 uM by fluorescence polarization
[7] = target: T2, Receptor-type tyrosine-protein kinase FLT3 (Homo sapiens, UniProt P36888); assay: Inhibition of FLT3
T2 sequence (P36888 whole entry): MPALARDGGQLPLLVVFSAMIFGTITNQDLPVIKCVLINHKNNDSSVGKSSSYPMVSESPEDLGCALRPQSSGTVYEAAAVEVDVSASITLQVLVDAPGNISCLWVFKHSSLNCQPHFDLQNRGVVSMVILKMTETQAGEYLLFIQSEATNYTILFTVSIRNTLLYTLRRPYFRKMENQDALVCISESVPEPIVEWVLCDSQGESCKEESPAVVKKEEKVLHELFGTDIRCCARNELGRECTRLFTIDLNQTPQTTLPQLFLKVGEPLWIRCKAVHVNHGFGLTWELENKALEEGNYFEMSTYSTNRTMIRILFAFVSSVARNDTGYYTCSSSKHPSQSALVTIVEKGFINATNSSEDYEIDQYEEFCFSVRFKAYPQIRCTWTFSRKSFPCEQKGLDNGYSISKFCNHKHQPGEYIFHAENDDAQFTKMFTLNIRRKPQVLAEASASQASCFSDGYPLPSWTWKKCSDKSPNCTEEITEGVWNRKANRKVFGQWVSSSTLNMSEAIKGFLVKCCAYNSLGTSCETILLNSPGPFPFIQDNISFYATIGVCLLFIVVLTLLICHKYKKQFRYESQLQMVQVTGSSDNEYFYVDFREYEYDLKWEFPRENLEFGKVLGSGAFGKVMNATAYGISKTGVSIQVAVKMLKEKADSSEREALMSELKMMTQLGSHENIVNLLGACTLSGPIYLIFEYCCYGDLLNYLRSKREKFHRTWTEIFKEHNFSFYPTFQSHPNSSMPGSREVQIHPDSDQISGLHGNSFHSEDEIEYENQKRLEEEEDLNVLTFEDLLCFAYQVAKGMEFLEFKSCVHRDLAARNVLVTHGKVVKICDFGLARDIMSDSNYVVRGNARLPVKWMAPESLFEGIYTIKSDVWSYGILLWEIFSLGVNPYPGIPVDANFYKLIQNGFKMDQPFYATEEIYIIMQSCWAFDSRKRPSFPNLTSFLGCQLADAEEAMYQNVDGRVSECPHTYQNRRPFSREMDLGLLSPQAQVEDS

[8] = target: Mast/stem cell growth factor receptor Kit (Homo sapiens, UniProt P10721); assay: Inhibition of KIT
Sequence of Mast/stem cell growth factor receptor Kit (P10721 whole entry): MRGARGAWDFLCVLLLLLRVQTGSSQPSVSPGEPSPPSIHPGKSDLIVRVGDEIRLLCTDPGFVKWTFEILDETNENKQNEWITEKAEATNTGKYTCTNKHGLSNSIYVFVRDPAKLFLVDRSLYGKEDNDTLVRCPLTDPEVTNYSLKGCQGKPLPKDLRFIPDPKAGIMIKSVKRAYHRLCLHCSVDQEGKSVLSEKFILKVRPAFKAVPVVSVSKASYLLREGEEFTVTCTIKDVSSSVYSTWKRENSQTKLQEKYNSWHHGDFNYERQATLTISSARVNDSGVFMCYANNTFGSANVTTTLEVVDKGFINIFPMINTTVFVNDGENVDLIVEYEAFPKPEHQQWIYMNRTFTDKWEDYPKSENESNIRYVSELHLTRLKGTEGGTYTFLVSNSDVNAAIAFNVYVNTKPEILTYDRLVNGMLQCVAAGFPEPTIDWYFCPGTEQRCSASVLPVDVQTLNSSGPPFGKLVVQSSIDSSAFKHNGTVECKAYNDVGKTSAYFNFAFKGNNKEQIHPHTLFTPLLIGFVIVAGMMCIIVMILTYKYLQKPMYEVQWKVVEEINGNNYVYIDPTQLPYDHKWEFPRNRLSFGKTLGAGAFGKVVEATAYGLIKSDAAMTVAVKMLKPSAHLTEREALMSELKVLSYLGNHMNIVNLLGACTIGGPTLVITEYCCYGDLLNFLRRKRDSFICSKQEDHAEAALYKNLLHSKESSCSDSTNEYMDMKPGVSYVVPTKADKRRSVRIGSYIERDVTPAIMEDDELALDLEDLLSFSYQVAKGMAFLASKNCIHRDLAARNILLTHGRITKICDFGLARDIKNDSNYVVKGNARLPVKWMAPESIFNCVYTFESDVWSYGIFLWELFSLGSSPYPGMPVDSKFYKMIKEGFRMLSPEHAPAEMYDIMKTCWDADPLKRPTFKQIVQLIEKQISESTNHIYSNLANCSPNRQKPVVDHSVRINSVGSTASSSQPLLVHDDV

[9] = target: Platelet-derived growth factor receptor beta (Homo sapiens, UniProt P09619); assay: Inhibition of PDGFRbeta
Sequence of Platelet-derived growth factor receptor beta (P09619 whole entry): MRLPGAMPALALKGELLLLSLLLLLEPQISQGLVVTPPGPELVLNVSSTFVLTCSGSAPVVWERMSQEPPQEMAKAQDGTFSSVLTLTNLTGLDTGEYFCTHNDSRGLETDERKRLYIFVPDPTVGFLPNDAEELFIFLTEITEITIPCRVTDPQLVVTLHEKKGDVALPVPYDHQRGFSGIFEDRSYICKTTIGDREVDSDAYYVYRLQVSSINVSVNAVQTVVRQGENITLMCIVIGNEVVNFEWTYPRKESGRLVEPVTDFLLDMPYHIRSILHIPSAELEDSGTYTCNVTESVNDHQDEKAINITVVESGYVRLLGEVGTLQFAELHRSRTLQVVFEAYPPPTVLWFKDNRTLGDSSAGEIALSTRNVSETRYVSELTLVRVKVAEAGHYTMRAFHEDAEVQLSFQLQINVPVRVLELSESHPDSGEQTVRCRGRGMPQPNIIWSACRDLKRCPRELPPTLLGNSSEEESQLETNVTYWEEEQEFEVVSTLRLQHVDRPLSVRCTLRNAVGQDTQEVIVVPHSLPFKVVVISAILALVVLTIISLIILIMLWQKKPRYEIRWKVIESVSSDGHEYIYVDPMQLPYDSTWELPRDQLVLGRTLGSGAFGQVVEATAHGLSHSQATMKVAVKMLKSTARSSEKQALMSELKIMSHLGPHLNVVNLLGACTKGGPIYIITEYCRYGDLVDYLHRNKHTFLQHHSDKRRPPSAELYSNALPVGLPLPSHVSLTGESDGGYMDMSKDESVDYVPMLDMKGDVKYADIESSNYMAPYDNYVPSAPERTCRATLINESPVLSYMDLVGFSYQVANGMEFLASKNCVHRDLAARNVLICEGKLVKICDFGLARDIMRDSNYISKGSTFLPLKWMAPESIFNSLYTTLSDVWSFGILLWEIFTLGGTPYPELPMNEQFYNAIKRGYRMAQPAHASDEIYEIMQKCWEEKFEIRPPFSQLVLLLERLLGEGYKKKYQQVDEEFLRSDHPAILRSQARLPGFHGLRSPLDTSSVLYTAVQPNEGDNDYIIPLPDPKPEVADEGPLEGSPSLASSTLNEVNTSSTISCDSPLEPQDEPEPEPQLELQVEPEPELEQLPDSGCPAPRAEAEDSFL

[10] = Half life in rat at 2 mg/kg, iv and 10 mg/kg, po; type: ADME, organism-based; conditions: in vivo
[11] = Cmax in rat at 2 mg/kg, iv and 10 mg/kg, po; type: ADME, organism-based; conditions: in vivo
[12] = Volume of distribution in rat at 2 mg/kg, iv and 10 mg/kg, po; type: ADME, organism-based; conditions: in vivo
[13] = Clearance in rat at 2 mg/kg, iv and 10 mg/kg, po; type: ADME, organism-based; conditions: in vivo
[14] = Oral bioavailability in rat at 10 mg/kg; type: ADME, organism-based; conditions: in vivo

T1 sequence (P07333 whole entry): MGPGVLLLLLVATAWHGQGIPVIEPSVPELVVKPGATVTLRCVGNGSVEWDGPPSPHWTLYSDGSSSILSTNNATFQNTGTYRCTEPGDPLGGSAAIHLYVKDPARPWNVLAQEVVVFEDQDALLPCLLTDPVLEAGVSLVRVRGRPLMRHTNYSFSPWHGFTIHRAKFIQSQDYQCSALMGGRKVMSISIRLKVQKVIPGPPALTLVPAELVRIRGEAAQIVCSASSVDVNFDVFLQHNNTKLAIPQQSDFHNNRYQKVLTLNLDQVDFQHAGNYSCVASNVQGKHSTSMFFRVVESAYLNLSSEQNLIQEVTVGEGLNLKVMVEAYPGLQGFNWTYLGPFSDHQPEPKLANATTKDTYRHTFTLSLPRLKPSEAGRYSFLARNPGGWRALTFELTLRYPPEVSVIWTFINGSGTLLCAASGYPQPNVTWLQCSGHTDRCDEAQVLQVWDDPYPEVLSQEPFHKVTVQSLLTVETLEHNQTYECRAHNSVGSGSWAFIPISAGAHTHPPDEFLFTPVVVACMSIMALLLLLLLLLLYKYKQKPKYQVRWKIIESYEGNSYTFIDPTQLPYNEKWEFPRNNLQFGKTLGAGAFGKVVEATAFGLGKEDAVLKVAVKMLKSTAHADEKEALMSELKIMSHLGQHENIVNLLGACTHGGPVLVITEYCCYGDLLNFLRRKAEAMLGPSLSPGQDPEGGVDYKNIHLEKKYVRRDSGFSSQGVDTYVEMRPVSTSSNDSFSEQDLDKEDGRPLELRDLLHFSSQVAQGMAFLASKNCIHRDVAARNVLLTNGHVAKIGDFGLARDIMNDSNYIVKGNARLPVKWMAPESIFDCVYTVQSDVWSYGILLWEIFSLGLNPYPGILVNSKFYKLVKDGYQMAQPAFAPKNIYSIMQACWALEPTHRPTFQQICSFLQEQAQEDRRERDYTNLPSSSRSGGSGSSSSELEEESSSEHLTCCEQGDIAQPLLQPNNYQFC

IC50 [1]: > 20000 nM
SMILES: Cc1cc(-c2c(-c3ccccc3)c3ncccc3[nH]c2=O)on1

IC50 [1]: > 5000 nM
SMILES: Cc1cc(-c2c(-c3ccccc3)c3cc(N)ccc3[nH]c2=O)on1

inhibition [6]: 8%
SMILES: Cc1cc(-c2c(-c3ccccc3)c3cnccc3[nH]c2=O)on1

IC50 [1]: > 5000 nM
SMILES: Cc1cc(-c2c(-c3ccccc3)c3ccccc3[nH]c2=O)on1

Further lines, the molecule ahead of its results:

SMILES: CCc1ccc(-c2c(-c3cnc(C)[nH]3)c(=O)[nH]c3ccc(C#N)cc23)cc1
Activity [2]: Active
Activity [3]: Active
Activity [4]: Active
IC50 [5]: 5 nM

SMILES: CCc1ccc(-c2c(-c3cnc(C)[nH]3)c(=O)[nH]c3ccc(Cl)cc23)cc1
IC50 [5]: 28 nM
IC50 [7]: 34 nM
IC50 [8]: 67 nM
IC50 [9]: > 1000 nM

SMILES: CCc1ccc(-c2c(-c3c[nH]c(C)n3)c(=O)[nH]c3ccc(C#N)cc23)cc1
IC50 [7]: 47 nM
IC50 [8]: 170 nM
IC50 [9]: > 1000 nM
half-life [10]: 1.07 h
Cmax [11]: 317 ng/mL
Vd [12]: 8.6 L/kg
clearance [13]: 93 mL/min/kg
bioavailability [14]: 56%
